Experimental data taken from US20160115540A1, “PRODRUGS AND DRUGS” (Biogen MA Inc., priority 2013, published 2016).
Counter-ions that a name gives are not always drawn.

System: jejunum
Test: Transcriptional profiling on Affymetrix GeneChips, single dose, naïve mice: jejunum
Format: in vivo, C57BL/6 mice
Conditions: 100MMF-vs-Veh
Method: Treated mice were sacrificed at 2, 7, or 12 hours. Tissues (liver, spleen, kidney, jejunum, cortex, hippocampus, striatum and whole blood) were collected and analyzed by transcriptional profiling on mouse Affymetrix GeneChips.
Tissues (liver, spleen, kidney, jejunum, cortex, hippocampus, striatum and whole blood) were collected and analyzed by transcriptional profiling on mouse Affymetrix GeneChips.
Animals were exposed to CO2 and whole blood collected via cardiac puncture. Two 100 μl aliquots of whole blood were collected in 1.5 mL microcentrifuge tubes and snap frozen in liquid nitrogen. Peripheral (liver, spleen, kidney and jejunum) and CNS brain (cerebellum, hippocampus, striatum and cortex) tissues were harvested and snap frozen in liquid nitrogen, with special care taken to collect tissues of similar size and from the same location. All samples were stored at −80° C. until RNA extraction was conducted.
For RNA preparation, frozen tissues were placed in 2 mL RNAse-free 96-well blocks with 1.5 mL QIAzol Lysis Reagent (QIAgen) and a 3.2 mm stainless steel bead (BioSpec Products, Bartlesville, Okla.). Tissues were disrupted for four cycles of 45 seconds in a Mini-Beadbeater (Biospec Products). RNA was extracted in chloroform and the aqueous phase was mixed with an equal volume of 70% ethanol. Extracted RNA was applied to RNeasy 96 plates and purified by the spin method according to the manufacturer's protocol (RNeasy 96 Universal Tissue Protocol, QIAgen, Hilden Germany).
Automated sample amplifications and biotin labelings were carried out using the NuGEN Ovation RNA Amplification system V2 (Cat #3100), Ovation WB reagent (Cat #1300) and Encore Biotin module (Cat #4200) (NuGEN Technologies, Inc, San Carlos, Calif.) according to manufacturer's recommendations using an Arrayplex automated liquid handler (Beckman Coulter, Indianapolis, Ind.). Two micrograms of biotin labeled sscDNA probe were hybridized to Affymetrix GeneChip Affymetrix HT_MG-430_PM plate arrays with modified conditions as described in Allaire et al. Washing and staining of the hybridized arrays were completed as described in the GeneChip Expression analysis technical manual for HT plate arrays using the Genechip® Array Station (Affymetrix, Santa Clara, Calif.) with modifications as described in Allaire et al. The processed GeneChip® plate arrays were scanned using GeneTitan scanner (Affymetrix, Santa Clara, Calif.).
Affymetrix scans were subject to quality control (QC) measures. These tests included a visual inspection of the distribution of raw signal intensities and an assessment of RNA degradation, relative log expression (RLE), and normalized unsealed standard error (NUSE). All sample scans that passed these QC metrics were included in the analysis.
All CEL files were subjected to GC-content-based Robust Multi-array Average (GCRMA) normalization (version 2.20.0) (Irizarry R A, et al. Nucleic Acids Res 2003; 31:e15; Li C, et al. Genome Biol 2001; 2:[…]0032). Expression levels were log (base 2) transformed.
All calculations and analyses were carried out using R (version 2.11.1) and Bioconductor computational tools (Gentleman R. Springer Science+Business Media 2005).

## COC(=O)/C=C/C(=O)O [MMF, monomethyl fumarate]
2 h
  FC Slc2a1 (1426599_PM_a_at): 1.53
  FC Slc2a1 (1426600_PM_at): 1.68
  FC Slc40a1 (1417061_PM_at): 2.73
  FC Slc48a1 1450410_PM_a_at: 1.62
  FC Slfn2 (1450165_PM_at): −1.82
  FC Srxn1 (1425351_PM_at): 1.77
  FC St3gal6 (1449078_PM_at): 1.52
  FC Tkt (1436605_PM_at): 1.73
  FC Tnfaip3 1433699_PM_at: −1.67
  FC Tox3 (1436600_PM_at): 1.81
  FC Ugt2b5 (1419622_PM_at): 3.13
  FC Ugt2b35 (1439624_PM_at): 3.08
7 h
  FC 1110020G09Rik (1437287_PM_at): 1.74
  FC 1447411_PM_at: 1.97
  FC 9130221J17Rik (1443159_PM_at): 1.61
  FC 9430069I07Rik (1431672_PM_at): 3.66
  FC Abcc2 (1450109_PM_s_at): 1.51
  FC Abcc3 (1428988_PM_at): 2.26
  FC Acsm5 (1437662_PM_at): 1.71
  FC Acss2 (1446542_PM_at): 2.06
  FC Akr1b8 (1448894_PM_at): 14.16
  FC Akr1c12 (1450455_PM_s_at): 1.58
  FC Akr1c13 (1418672_PM_at): 1.86
  FC Akr1c19 (1455454_PM_at): 2.39
  FC Aldh1a7 (1418601_PM_at): 1.86
  FC Areg (1421134_PM_at): 2.93
  FC Asns 1451095_PM_at: 1.60
  FC Blvrb (1451386_PM_at): 1.55
  FC Capn13 (1437960_PM_at): −1.75
  FC Cbr1 (1460196_PM_at): 1.83
  FC Cbr3 (1427912_PM_at): 40.98
  FC Ces1e (1419510_PM_at): 2.44
  FC Ces1f (1424266_PM_s_at): 5.19
  FC Ces1g (1449486_PM_at): 9.24
  FC Ddc (1426215_PM_at): 2.03
  FC Dppa5a (1416552_PM_at): 1.88
  FC Enkur (1428960_PM_at): −1.56
  FC Entpd5 (1451765_PM_a_at): 1.60
  FC Esd (1438488_PM_at): 2.15
  FC Fam162a (1451385_PM_at): 1.67
  FC G6pd2 (1422327_PM_s_at): 2.06
  FC G6pdx (1448354_PM_at): 1.76
  FC Gclc (1424296_PM_at): 2.87
  FC Gclc (1455959_PM_s_at): 2.48
  FC Gm14446 (1435529_PM_at): −1.65
  FC Gpx2 (1449279_PM_at): 1.53
  FC Gsr (1421816_PM_at): 3.13
  FC Gss (1441931_PM_x_at): 2.20
  FC Gss (1448273_PM_at): 2.25
  FC Gsta2 (1421040_PM_a_at): 9.84
  FC Gsta2 (1421041_PM_s_at): 1.90
  FC Gsta3 (1423436_PM_at): 5.71
  FC Gsta3 (1423437_PM_at): 5.75
  FC Gstm1 (1416416_PM_x_at): 3.95
  FC Gstm1 (1425627_PM_x_at): 4.80
  FC Gstm1 (1448330_PM_at): 4.23
  FC Gstm2 (1416411_PM_at): 2.09
  FC Gstm3 (1427473_PM_at): 3.46
  FC Gstm3 (1427474_PM_s_at): 1.99
  FC Gstm4 (1424835_PM_at): 5.75
  FC Gstm6 (1422072_PM_a_at): 2.23
  FC Gstm7 (1419072_PM_at): 1.97
  FC Htatip2 (1451814_PM_a_at): 1.68
  FC Ifit1 (1450783_PM_at): −1.95
  FC Matn2 (1419442_PM_at): 1.59
  FC Matn2 (1455978_PM_a_at): 2.21
  FC Me1 (1416632_PM_at): 2.01
  FC Nqo1 (1423627_PM_at): 2.63
  FC Pgd 1423706_PM_a_at: 1.55
  FC Pgm2 (1451149_PM_at): 1.54
  FC Pir (1429001_PM_at): 5.12
  FC Prss8 (1418320_PM_at): 1.75
  FC Rsad2 (1421009_PM_at): −1.84
  FC Rsad2 (1436058_PM_at): −1.81
  FC Rtp4 (1418580_PM_at): −1.61
  FC Setd4 (1425239_PM_at): 2.27
  FC Setd4 (1435405_PM_at): 1.76
  FC Setd4 (1460373_PM_a_at): 1.77
  FC Slc5a4b (1422757_PM_at): 1.79
  FC Slc35e3 (1428805_PM_at): 1.67
  FC Txnrd1 (1424486_PM_a_at): 2.07
  FC Txnrd1 (1424487_PM_x_at): 1.93
  FC Ugt2b5 (1419622_PM_at): 4.50
  FC Ugt2b35 (1439624_PM_at): 3.31
  FC Ugt2b36 (1455595_PM_at): 2.50
12 h
  FC Acss2 (1446542_PM_at): 1.52
